Here are results for eight molecules from patent US7968579B2, “Antifungal triazole derivatives” (Daewoong Pharmaceutical Co., Ltd., priority 2005, dated 2011).

Converted amounts (≈) assume the structure as drawn. Where only a bound is given, the exact number is not on record here.

One data set deals with Candida tropicalis. Description: In vitro assay for antifungal activity. The class given is cell-based. The conditions noted are these: RPMI 1640, 1% DMSO, concentration at which 50% of the fungi were inhibited vs negative control, alamarblue, 24 hours; for MIC: Candida tropicalis. As for the experimental part: (§1) Fungal strains to be tested were inoculated onto Sabouraud dextrose agar, YM agar, and Potato dextrose agar and sufficiently cultured at 35° C. for two to three days. Individual single colonies of the yeast fungi selected out of the cultured strains were sufficiently suspended in 5 ml of 0.85% sterile physiological saline, followed by correction to adjust the absorbance thereof at 530 nm to 0.108. The suspensions were diluted serially by 1:50 and then 1:20 in RPMI 1640 media to prepare liquid inocula ranging in cell count from 1.0×10^3 to 5.0×10^3 CFU/ml.
(§2) Antifungal samples were prepared by diluting the compounds of the present inventions in RPMI 1640 media to serial concentrations ranging from 0.0625 to 32 μg/ml. As a vehicle, DMSO was contained in a final concentration of 1% (V/V) in the antifungal samples. 0.1 ml of each of the dilutions in series was added to equal volume of each of the fungal inocula.
(§3) Concentrations of the compounds at which 50% of the fungi were inhibited compared to the negative control were determined using the growth indicator alamarblue.
A general note: Alamar Blue is a resazurin reagent that responds to reducing activity.

A further data set has as its system Candida glabrata. The experiment in a line: In vitro assay for antifungal activity. The class given is cell-based. Conditions: RPMI 1640, 1% DMSO, concentration at which 50% of the fungi were inhibited vs negative control, alamarblue, 24 hours; for MIC: Nakaseomyces glabratus. The procedure: as §1, §2, §3
Another data set relates to Aspergillus fumigatus. Description: In vitro assay for antifungal activity. Conditions: RPMI 1640, 1% DMSO, concentration at which 50% of the fungi were inhibited vs negative control, alamarblue; for MIC: Aspergillus fumigatus. The class given is cell-based. The procedure:
as §1, §2, §3

For data set [1], the system named is Candida albicans. Description: In vitro assay for antifungal activity. It counts as cell-based. The conditions noted are these: RPMI 1640, 1% DMSO, concentration at which 50% of the fungi were inhibited vs negative control, alamarblue, 24 hours; for MIC: Candida albicans. As for the experimental part:
as §1, §2, §3

A further data set concerns Aspergillus flavus. Description: In vitro assay for antifungal activity. The class given is cell-based. Conditions: RPMI 1640, 1% DMSO, concentration at which 50% of the fungi were inhibited vs negative control, alamarblue; for MIC: Aspergillus flavus. The procedure:
as §1, §2, §3

Another data set concerns Candida krusei. Description: In vitro assay for antifungal activity. Conditions: RPMI 1640, 1% DMSO, concentration at which 50% of the fungi were inhibited vs negative control, alamarblue, 24 hours; for MIC: Pichia kudriavzevii. It counts as cell-based. The procedure: as §1, §2, §3
For another data set, the system named is Cryptococcus neoformans. Description: In vitro assay for antifungal activity. The class given is cell-based. Conditions: RPMI 1640, 1% DMSO, concentration at which 50% of the fungi were inhibited vs negative control, alamarblue; for MIC: Cryptococcus neoformans. As for the experimental part:
as §1, §2, §3

For another data set, the system named is Aspergillus terreus. Description: In vitro assay for antifungal activity. The class given is cell-based. The conditions noted are these: RPMI 1640, 1% DMSO, concentration at which 50% of the fungi were inhibited vs negative control, alamarblue; for MIC: Aspergillus terreus. The procedure:
as §1, §2, §3

The next data set deals with Candida parapsilosis. The experiment in a line: In vitro assay for antifungal activity. Conditions: RPMI 1640, 1% DMSO, concentration at which 50% of the fungi were inhibited vs negative control, alamarblue, 24 hours; for MIC: Lodderomyces parapsilosis. The class given is cell-based. The procedure: as §1, §2, §3
Data set [2] in a line: Assay for acute toxicity in mice. It counts as in vivo. The conditions noted are these: oral administration, suspension in aqueous 0.5% methylcellulose, up to a dose of 2000 mg/kg, two weeks.
Data set [3] deals with Candida albicans. Description: In vivo assay for antifungal activity (systemic candidiasis). The conditions noted are these: male mice infected i.v. with Candida albicans; 20 mg/kg orally once a day for seven days; at 28 days after the infection. As for the experimental part:
Azole compounds synthesized in Examples were assayed for antifungal activity in vivo.
A suspension containing Candida albicans in a concentration ranging from 7×10^7 to 8×10^7 cfu/ml was intravenously injected at a dose of 0.1 ml/head into 10 male mice. 2 hrs after the injection, the compounds of the present inventions were orally administered at a dose of 20 mg/kg to respective mice in groups of 10. The compounds were administered once a day for seven days. The periods of time for which the infected mice lived were counted. The number of mice that survived the fungal infection was represented as % survival for each test group.

Consider `C[C@@H](n1cc(-c2ccccc2)cn1)[C@](O)(Cn1cncn1)c1ccc(F)cc1F` [Example 2], for which, in the data set with Candida tropicalis, the “Antifungal Activity (MIC) Candida tropicalis” value came out at 0.25 µg/mL. In addition, the “Antifungal Activity (MIC) Candida glabrata” value in the data set on Candida glabrata was 2 µg/mL. In the data set with Aspergillus fumigatus, the “Antifungal Activity (MIC) Aspergillus fumigatus” value was 1 µg/mL. For the same molecule, in the data set on Candida albicans [1], the “Antifungal Activity (MIC) Candida albicans” value is given as “≦0.015 μg/ml”. In addition, in the data set on Aspergillus flavus, the “Antifungal Activity (MIC) Aspergillus flavus” value is 4 µg/mL. Also, the “Antifungal Activity (MIC) Candida krusei” value in the data set with Candida krusei turned out to be 0.5 µg/mL. Also, the “Antifungal Activity (MIC) Cryptococcus neoformans” value in the data set on Cryptococcus neoformans was found to be 0.25 µg/mL. For the same molecule, the “Antifungal Activity (MIC) Aspergillus terreus” value in the data set on Aspergillus terreus amounted to 4 µg/mL. Further, in the data set with Candida parapsilosis, the “Antifungal Activity (MIC) Candida parapsilosis” value is listed as “≦0.015 μg/ml”.

What is called MIC is the least concentration at which growth counts as inhibited. A lower MIC goes with inhibition by little substance. With `C[C@@H](n1cc(-c2ccccc2F)cn1)[C@](O)(Cn1cncn1)c1ccc(F)cc1F` [Example 3, (2R,3R)-3-(4-(2-fluorophenyl)1H-pyrazole-1-yl)-2-(2,4-difluorophenyl)-1-(1H-1,2,4-triazole-1-yl)butane-2-ol], the MIC with Candida tropicalis was 1 µg/mL (≈ 2.42 µM); in the data set on Candida glabrata it was 2 µg/mL (≈ 4.84 µM); against Aspergillus fumigatus, 0.5 µg/mL (≈ 1.21 µM); against Candida albicans [1], at most 0.015 µg/mL; against Aspergillus flavus, 4 µg/mL (≈ 9.68 µM); against Candida krusei, 1 µg/mL (≈ 2.42 µM). Further, the MIC against Cryptococcus neoformans was 0.125 µg/mL (≈ 0.302 µM); in the data set on Aspergillus terreus, 2 µg/mL (≈ 4.84 µM); against Candida parapsilosis, 0.031 µg/mL (≈ 0.075 µM).

Take `C[C@@H](n1cc(-c2cccc(F)c2)cn1)[C@](O)(Cn1cncn1)c1ccc(F)cc1F` [Example 8, (2R,3R)-3-(4-(3-fluorophenyl)-1H-pyrazole-1-yl)-2-(2,4-difluorophenyl)-1-(1H-1,2,4-triazole-1-yl)butane-2-ol]: the MIC against Candida tropicalis was 0.25 µg/mL (≈ 0.605 µM); against Candida glabrata, 2 µg/mL (≈ 4.84 µM); in the data set with Aspergillus fumigatus it was 1 µg/mL (≈ 2.42 µM); in the data set on Candida albicans [1], at most 0.015 µg/mL; in the data set with Aspergillus flavus it was 8 µg/mL (≈ 19.4 µM); in the data set with Candida krusei it was 0.5 µg/mL (≈ 1.21 µM). Also, the MIC against Cryptococcus neoformans is 0.031 µg/mL (≈ 0.075 µM); with Aspergillus terreus it was 2 µg/mL (≈ 4.84 µM); against Candida parapsilosis, at most 0.015 µg/mL.

As for `C[C@@H](n1cc(-c2cccc(Cl)c2)cn1)[C@](O)(Cn1cncn1)c1ccc(F)cc1F` [Example 9, (2R,3R)-3-(4-(3-chlorophenyl)-1H-pyrazole-1-yl)-2-(2,4-difluorophenyl)-1-(1H-1,2,4-triazole-1-yl)butane-2-ol], the minimal inhibitory concentration (MIC) was 0.063 µg/mL (≈ 0.147 µM) in the data set on Candida tropicalis; 1 µg/mL (≈ 2.33 µM) in the data set on Candida glabrata; 2 µg/mL (≈ 4.65 µM) with Aspergillus fumigatus; at most 0.015 µg/mL with Candida albicans [1]; 8 µg/mL (≈ 18.6 µM) against Aspergillus flavus; 0.25 µg/mL (≈ 0.582 µM) in the data set on Candida krusei. Further, the MIC in the data set with Cryptococcus neoformans was 0.25 µg/mL (≈ 0.582 µM); in the data set with Aspergillus terreus, 4 µg/mL (≈ 9.31 µM); with Candida parapsilosis, at most 0.015 µg/mL.

On to `C[C@@H](n1cc(-c2ccc(Cl)cc2)cn1)[C@](O)(Cn1cncn1)c1ccc(F)cc1F` [Example 14, (2R,3R)-3-(4-(4-chlorophenyl)-1H-pyrazole-1-yl)-2-(2,4-difluorophenyl)-1-(1H-1,2,4-triazole-1-yl)butane-2-ol], for which the “toxic syndromes (acute toxicity)” value in data set [2] was “not to suffer from any toxic syndromes”. The MIC against Candida tropicalis was 0.031 µg/mL (≈ 0.0721 µM); against Candida glabrata, 2 µg/mL (≈ 4.65 µM); in the data set with Aspergillus fumigatus, 1 µg/mL (≈ 2.33 µM); with Candida albicans [1], at most 0.015 µg/mL; in the data set on Aspergillus flavus, 4 µg/mL (≈ 9.31 µM); with Candida krusei, 0.25 µg/mL (≈ 0.582 µM). Besides, the MIC in the data set with Cryptococcus neoformans was 0.25 µg/mL (≈ 0.582 µM); in the data set with Aspergillus terreus, 2 µg/mL (≈ 4.65 µM); in the data set on Candida parapsilosis it was at most 0.015 µg/mL.

`C[C@@H](n1cc(-c2ccc(Br)cc2)cn1)[C@](O)(Cn1cncn1)c1ccc(F)cc1F` [Example 15, (2R,3R)-3-(4-(4-bromophenyl)-1H-pyrazole-1-yl)-2-(2,4-difluorophenyl)-1-(1H-1,2,4-triazole-1-yl)butane-2-ol]: the MIC against Candida tropicalis was 0.125 µg/mL (≈ 0.264 µM); against Candida glabrata, 2 µg/mL (≈ 4.22 µM); in the data set with Aspergillus fumigatus, 1 µg/mL (≈ 2.11 µM); in the data set with Candida albicans [1], at most 0.015 µg/mL; in the data set on Aspergillus flavus, 4 µg/mL (≈ 8.43 µM); against Candida krusei, 0.5 µg/mL (≈ 1.05 µM). Besides, the values for the MIC in the data set with Cryptococcus neoformans, in the data set with Aspergillus terreus and in the data set on Candida parapsilosis were 0.125 µg/mL (≈ 0.264 µM), 1 µg/mL (≈ 2.11 µM) and at most 0.015 µg/mL, respectively.

Turning to `C[C@@H](n1cc(-c2ccc([N+](=O)[O-])cc2)cn1)[C@](O)(Cn1cncn1)c1ccc(F)cc1F` [Example 17, (2R,3R)-2-(2,4-difluorophenyl)-3-(4-(4-nitrophenyl)-1H-pyrazole-1-yl)-1-(1H-1,2,4-triazole-1-yl)butane-2-ol], in data set [2], the “toxic syndromes (acute toxicity)” value is “not to suffer from any toxic syndromes”. Also, the MIC with Candida tropicalis is 0.125 µg/mL (≈ 0.284 µM); against Candida glabrata it was 4 µg/mL (≈ 9.08 µM); in the data set on Aspergillus fumigatus, 2 µg/mL (≈ 4.54 µM); in the data set with Candida albicans [1], at most 0.015 µg/mL; with Aspergillus flavus, 8 µg/mL (≈ 18.2 µM); in the data set with Candida krusei, 0.25 µg/mL (≈ 0.568 µM). The minimum inhibitory concentration (MIC) with Cryptococcus neoformans is 0.031 µg/mL (≈ 0.0704 µM); with Aspergillus terreus, 2 µg/mL (≈ 4.54 µM); against Candida parapsilosis it was at most 0.015 µg/mL.

With `OC(Cn1cncn1)(Cn1cncn1)c1ccc(F)cc1F` [Fluconazole, reference compound], the minimum inhibitory concentration (MIC) against Candida tropicalis is over 8 µg/mL; in the data set with Candida glabrata it was over 32 µg/mL; with Aspergillus fumigatus, over 128 µg/mL; against Candida albicans [1], 4 µg/mL (≈ 13.1 µM); against Aspergillus flavus it was over 128 µg/mL; against Candida krusei, over 32 µg/mL. In addition, the MIC was 8 µg/mL (≈ 26.1 µM) with Cryptococcus neoformans, over 128 µg/mL against Aspergillus terreus and over 8 µg/mL against Candida parapsilosis. Also, the “% survival” value in the data set with Candida albicans [3] is recorded as 10%.
